Measured values from ChEMBL document CHEMBL4138202, “Design, synthesis, biological evaluation and molecular modeling of novel 2-amino-4-(1-phenylethoxy) pyridine derivatives as potential ROS1 inhibitors” (Eur J Med Chem, 2018).

Experiments:
HCC78 = test: Antiproliferative activity against human HCC78 cells after 48 hrs by MTT assay; conditions: HCC78, 48 h
[1] = biological target: Proto-oncogene tyrosine-protein kinase ROS (Homo sapiens, UniProt P08922); test: Inhibition of recombinant human GST-tagged ROS1 expressed in baculovirus expression system by Z'LYTE assay
NCI-H3122 = test: Antiproliferative activity against human NCI-H3122 cells after 48 hrs by MTT assay; conditions: NCI-H3122, 48 h
[2] = biological target: ALK tyrosine kinase receptor (Homo sapiens, UniProt Q9UM73); test: Inhibition of recombinant human GST-tagged ALK expressed in baculovirus expression system by Z'LYTE assay
[3] = biological target: Mitogen-activated protein kinase 3 (Homo sapiens) (UniProt P27361); test: Inhibition of recombinant human GST-tagged full length MAPK3 expressed in Escherichia coli at 1 uM by Z'LYTE assay relative to control
[4] = biological target: Platelet-derived growth factor receptor alpha (Homo sapiens) (UniProt P16234); test: Inhibition of recombinant human GST-tagged PDGFRalpha expressed in baculovirus expression system at 1 uM by Z'LYTE assay relative to control
[5] = biological target: Leukocyte tyrosine kinase receptor (Homo sapiens) (UniProt P29376); test: Inhibition of recombinant human GST-tagged LTK expressed in baculovirus expression system at 1 uM by Z'LYTE assay relative to control
[6] = biological target: Tyrosine-protein kinase ABL1 (Homo sapiens) (UniProt P00519); test: Inhibition of recombinant human His-tagged ABL1 expressed in baculovirus expression system at 1 uM by Z'LYTE assay relative to control
[7] = biological target: Epidermal growth factor receptor (Homo sapiens) (UniProt P00533); test: Inhibition of recombinant human GST-tagged EGFR expressed in baculovirus expression system at 1 uM by Z'LYTE assay relative to control
[8] = biological target: Mast/stem cell growth factor receptor Kit (Homo sapiens) (UniProt P10721); test: Inhibition of KIT (unknown origin) at 1 uM by Z'LYTE assay relative to control
[9] = biological target: Insulin-like growth factor 1 receptor (Homo sapiens) (UniProt P08069); test: Inhibition of recombinant human His-tagged IGF1R expressed in baculovirus expression system at 1 uM by Z'LYTE assay relative to control
[10] = biological target: Hepatocyte growth factor receptor (Homo sapiens) (UniProt P08581); test: Inhibition of recombinant human His-tagged MET expressed in mammalian expression system at 1 uM by Z'LYTE assay relative to control
[11] = biological target: Serine/threonine-protein kinase B-raf (Homo sapiens) (UniProt P15056); test: Inhibition of recombinant human full length GST-tagged BRAF expressed in baculovirus expression system at 1 uM by Z'LYTE assay relative to control
[12] = biological target: Fibroblast growth factor receptor 1 (Homo sapiens) (UniProt P11362); test: Inhibition of recombinant human His-tagged FGFR1 expressed in baculovirus expression system at 1 uM by Z'LYTE assay relative to control
[13] = biological target: Tyrosine-protein kinase JAK2 (Homo sapiens) (UniProt O60674); test: Inhibition of recombinant human GST-tagged JAK2 expressed in baculovirus expression system at 1 uM by Z'LYTE assay relative to control
[14] = biological target: CDK2/Cyclin A2 (Homo sapiens) (UniProt P24941+P20248); test: Inhibition of recombinant human full length His-tagged CDK2/cyclin A expressed in baculovirus expression system at 1 uM by Z'LYTE assay relative to control

Proto-oncogene tyrosine-protein kinase ROS, sequence (P08922 whole entry): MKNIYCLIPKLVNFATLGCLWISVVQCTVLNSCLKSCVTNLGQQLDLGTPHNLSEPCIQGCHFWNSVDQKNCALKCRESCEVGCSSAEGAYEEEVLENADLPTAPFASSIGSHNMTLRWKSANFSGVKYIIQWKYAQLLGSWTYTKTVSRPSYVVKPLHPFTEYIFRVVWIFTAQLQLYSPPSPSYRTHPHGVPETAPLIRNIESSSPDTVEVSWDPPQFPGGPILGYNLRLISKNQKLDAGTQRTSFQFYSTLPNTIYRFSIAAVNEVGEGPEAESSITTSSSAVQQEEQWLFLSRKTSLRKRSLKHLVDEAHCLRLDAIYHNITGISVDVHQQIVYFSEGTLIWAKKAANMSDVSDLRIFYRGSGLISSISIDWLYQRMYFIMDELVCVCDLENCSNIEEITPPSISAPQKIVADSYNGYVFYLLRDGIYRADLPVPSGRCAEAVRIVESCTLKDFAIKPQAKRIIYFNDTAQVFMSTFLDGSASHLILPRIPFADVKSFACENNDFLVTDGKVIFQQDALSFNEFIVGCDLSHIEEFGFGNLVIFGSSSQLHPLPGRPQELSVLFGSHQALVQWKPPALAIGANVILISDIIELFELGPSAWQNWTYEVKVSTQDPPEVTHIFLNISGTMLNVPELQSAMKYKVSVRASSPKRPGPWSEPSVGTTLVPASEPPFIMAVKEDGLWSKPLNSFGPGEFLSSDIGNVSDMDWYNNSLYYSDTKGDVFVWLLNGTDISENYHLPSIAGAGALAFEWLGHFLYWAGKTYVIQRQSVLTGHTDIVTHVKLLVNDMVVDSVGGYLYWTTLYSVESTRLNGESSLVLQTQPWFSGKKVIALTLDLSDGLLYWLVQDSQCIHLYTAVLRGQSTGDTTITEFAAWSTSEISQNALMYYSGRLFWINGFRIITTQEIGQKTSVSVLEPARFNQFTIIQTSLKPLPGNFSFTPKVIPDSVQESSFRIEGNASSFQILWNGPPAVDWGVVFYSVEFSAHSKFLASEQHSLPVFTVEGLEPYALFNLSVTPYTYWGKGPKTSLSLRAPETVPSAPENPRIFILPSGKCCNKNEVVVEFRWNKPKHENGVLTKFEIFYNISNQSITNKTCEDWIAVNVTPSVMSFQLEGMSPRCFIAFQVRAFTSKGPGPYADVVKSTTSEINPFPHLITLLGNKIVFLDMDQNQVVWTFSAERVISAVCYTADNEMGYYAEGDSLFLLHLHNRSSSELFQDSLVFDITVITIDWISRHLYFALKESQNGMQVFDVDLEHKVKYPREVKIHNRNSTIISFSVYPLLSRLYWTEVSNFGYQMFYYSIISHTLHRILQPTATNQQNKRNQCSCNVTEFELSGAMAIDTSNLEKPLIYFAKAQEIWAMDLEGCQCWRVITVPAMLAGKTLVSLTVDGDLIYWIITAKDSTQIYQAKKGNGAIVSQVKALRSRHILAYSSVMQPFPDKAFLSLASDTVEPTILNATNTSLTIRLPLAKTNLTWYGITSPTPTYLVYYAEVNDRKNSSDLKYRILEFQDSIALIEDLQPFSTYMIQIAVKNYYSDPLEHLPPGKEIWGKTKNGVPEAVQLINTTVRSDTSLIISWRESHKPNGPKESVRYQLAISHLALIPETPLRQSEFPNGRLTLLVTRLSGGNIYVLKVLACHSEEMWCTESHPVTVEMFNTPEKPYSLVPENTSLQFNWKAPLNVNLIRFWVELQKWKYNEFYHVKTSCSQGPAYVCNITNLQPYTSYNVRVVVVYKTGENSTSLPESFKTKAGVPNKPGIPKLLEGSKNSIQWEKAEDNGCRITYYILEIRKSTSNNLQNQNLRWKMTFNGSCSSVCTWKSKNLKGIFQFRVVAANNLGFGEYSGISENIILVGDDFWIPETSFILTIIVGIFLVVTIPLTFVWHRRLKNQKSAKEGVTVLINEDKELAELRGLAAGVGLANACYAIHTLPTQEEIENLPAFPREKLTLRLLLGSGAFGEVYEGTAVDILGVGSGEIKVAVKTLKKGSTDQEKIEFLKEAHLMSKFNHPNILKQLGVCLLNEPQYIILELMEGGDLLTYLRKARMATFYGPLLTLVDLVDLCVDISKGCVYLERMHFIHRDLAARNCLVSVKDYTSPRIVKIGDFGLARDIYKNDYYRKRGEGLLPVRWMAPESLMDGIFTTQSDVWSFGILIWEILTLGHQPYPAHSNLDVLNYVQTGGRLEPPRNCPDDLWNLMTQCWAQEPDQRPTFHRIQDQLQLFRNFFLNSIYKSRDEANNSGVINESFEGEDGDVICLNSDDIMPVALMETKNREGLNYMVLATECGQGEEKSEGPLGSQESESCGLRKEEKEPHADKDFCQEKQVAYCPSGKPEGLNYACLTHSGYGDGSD
ALK tyrosine kinase receptor, sequence (Q9UM73 whole entry): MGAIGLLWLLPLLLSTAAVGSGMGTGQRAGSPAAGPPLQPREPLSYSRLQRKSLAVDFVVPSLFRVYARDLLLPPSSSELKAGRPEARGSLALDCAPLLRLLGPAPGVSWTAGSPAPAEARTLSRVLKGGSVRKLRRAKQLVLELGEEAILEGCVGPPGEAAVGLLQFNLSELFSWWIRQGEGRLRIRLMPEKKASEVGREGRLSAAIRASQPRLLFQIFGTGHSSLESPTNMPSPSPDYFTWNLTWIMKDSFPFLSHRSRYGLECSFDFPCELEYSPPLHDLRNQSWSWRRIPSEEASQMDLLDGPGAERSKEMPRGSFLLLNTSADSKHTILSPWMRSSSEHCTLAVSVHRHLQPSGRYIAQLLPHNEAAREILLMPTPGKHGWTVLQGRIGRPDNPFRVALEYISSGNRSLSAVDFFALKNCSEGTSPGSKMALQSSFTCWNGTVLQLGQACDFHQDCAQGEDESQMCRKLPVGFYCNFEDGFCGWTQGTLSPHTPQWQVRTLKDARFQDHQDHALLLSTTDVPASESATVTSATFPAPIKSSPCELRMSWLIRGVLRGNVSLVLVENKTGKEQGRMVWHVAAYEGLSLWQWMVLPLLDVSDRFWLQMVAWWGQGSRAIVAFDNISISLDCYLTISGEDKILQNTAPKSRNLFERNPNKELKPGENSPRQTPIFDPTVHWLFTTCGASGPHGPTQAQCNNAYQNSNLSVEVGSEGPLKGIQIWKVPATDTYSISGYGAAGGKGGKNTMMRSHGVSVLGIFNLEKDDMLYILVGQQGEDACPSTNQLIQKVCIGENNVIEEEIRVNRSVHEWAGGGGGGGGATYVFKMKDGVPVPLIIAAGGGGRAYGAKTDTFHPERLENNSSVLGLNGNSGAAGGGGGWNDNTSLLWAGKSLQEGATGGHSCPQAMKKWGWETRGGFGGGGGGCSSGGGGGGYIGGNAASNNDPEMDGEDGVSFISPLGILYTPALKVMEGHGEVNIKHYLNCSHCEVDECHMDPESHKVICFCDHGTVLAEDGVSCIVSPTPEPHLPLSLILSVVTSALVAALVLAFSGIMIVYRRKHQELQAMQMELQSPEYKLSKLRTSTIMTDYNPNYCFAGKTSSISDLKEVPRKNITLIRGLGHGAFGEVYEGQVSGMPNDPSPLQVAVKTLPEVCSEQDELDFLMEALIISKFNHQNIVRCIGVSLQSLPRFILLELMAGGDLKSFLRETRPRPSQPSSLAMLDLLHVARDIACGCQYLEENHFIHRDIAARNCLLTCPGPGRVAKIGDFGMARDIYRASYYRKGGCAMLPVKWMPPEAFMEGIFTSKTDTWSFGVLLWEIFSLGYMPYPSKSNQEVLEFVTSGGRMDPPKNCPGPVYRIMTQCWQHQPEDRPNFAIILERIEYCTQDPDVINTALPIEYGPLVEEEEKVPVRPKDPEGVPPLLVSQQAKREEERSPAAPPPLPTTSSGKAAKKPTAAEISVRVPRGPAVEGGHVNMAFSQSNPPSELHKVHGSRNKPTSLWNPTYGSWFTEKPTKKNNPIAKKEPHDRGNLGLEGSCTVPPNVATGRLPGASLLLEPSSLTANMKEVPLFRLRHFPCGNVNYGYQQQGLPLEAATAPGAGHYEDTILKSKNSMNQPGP
Serine/threonine-protein kinase B-raf (Homo sapiens), sequence (P15056 whole entry): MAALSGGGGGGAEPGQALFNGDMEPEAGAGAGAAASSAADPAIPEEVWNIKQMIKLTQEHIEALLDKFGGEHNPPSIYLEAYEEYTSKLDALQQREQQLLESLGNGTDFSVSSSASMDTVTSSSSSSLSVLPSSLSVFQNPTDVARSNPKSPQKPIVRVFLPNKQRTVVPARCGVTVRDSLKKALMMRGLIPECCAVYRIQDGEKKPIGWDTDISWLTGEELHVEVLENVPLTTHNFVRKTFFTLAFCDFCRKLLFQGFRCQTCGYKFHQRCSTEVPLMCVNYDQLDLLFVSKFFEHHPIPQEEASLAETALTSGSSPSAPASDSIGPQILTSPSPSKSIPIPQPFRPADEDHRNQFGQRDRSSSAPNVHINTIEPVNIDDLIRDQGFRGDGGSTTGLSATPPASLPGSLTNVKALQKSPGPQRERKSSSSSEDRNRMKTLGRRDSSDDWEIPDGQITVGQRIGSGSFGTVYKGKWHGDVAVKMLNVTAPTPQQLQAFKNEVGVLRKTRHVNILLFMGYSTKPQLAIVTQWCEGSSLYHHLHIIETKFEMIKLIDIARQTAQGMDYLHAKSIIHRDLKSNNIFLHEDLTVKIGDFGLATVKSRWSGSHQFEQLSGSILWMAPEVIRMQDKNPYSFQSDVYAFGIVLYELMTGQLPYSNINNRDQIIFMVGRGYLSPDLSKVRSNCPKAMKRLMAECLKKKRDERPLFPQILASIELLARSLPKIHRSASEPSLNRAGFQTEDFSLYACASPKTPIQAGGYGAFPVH
Mitogen-activated protein kinase 3 (Homo sapiens), sequence (P27361 whole entry): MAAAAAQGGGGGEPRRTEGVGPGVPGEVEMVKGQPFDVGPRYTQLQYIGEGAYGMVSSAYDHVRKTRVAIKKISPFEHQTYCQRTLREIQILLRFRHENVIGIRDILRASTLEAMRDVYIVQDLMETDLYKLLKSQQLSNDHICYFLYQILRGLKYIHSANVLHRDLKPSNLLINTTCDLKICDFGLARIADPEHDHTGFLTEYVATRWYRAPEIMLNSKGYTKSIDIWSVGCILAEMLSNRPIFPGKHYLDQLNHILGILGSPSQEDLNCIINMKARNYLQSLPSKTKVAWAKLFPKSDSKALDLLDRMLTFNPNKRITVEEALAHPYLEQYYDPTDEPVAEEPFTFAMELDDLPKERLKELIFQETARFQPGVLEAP

IC50 (HCC78)	IC50 [1]	IC50 (NCI-H3122)	SMILES	further results
48.6 µM	6.3 µM	50.7 µM	CC(Oc1cccnc1Nc1cnn(C)c1)c1cccc(C(=O)NCc2ccc(Cl)c(C(F)(F)F)c2)c1 (stereo unspecified)	–
13.2 µM	2.4 µM	7.6 µM	CC(Oc1ccnc(Nc2cnn(C)c2)c1)c1cccc(C(=O)NCc2cc(F)cc(F)c2)c1 (stereo unspecified)	–
64.4 µM	1.8 µM	> 100 µM	COc1cccc(CNC(=O)c2cccc(C(C)Oc3ccnc(Nc4cnn(C)c4)c3)c2)c1 (stereo unspecified)	–
> 100 µM	0.44 µM	> 100 µM	COc1ccc(CNC(=O)c2cccc(C(C)Oc3ccnc(Nc4ncccn4)c3)c2)cc1OC (stereo unspecified)	–
9 µM	0.57 µM	14.8 µM	COc1ccc(CNC(=O)c2cccc(C(C)Oc3ccnc(Nc4cnn(C5CCN(C)CC5)c4)c3)c2)cc1OC (stereo unspecified)	–
49.7 µM	2.4 µM	> 100 µM	Cc1ccc(CNC(=O)c2cccc(C(C)Oc3ccnc(Nc4cnn(CC(C)(C)O)c4)c3)c2)cc1 (stereo unspecified)	IC50 [2]: > 10 µM
17.5 µM	1.4 µM	13.4 µM	Cc1ccc(CNC(=O)c2cccc(C(C)Oc3ccnc(Nc4cn(C)nc4C)c3)c2)cc1 (stereo unspecified)	–
7.8 µM	> 10 µM	35.7 µM	CC(Oc1cccnc1Nc1cnn(C)c1)c1cccc(C(=O)NCc2ccc(F)c(Cl)c2)c1 (stereo unspecified)	–
57.4 µM	8.7 µM	38.4 µM	Cc1ccc(CNC(=O)c2cccc(C(C)Oc3cccnc3Nc3cnn(CC#N)c3)c2)cc1 (stereo unspecified)	IC50 [2]: > 10 µM
8.7 µM	1.5 µM	35.1 µM	CC(Oc1ccnc(Nc2cnn(C)c2)c1)c1cccc(C(=O)NCc2ccc(C#N)cc2)c1 (stereo unspecified)	–
73.9 µM	> 10 µM	8.3 µM	CC(Oc1cccnc1Nc1cnn(C)c1)c1cccc(C(=O)NCc2ccc(OC(F)(F)F)cc2)c1 (stereo unspecified)	–
14.8 µM	9.4 µM	8.5 µM	Cc1ccc(CNC(=O)c2cccc(C(C)Oc3cccnc3Nc3ncc(C)s3)c2)cc1 (stereo unspecified)	IC50 [2]: > 10 µM
26.2 µM	> 10 µM	8.1 µM	Cc1ccc(CNC(=O)c2cccc(C(C)Oc3ccnc(NN4CCN(C)CC4)c3)c2)cc1 (stereo unspecified)	–
2 µM	–	0.8 µM	C[C@@H](Oc1cc(-c2cnn(C3CCNCC3)c2)cnc1N)c1c(Cl)ccc(F)c1Cl [CRIZOTINIB]	–
> 100 µM	6.2 µM	> 100 µM	Cc1ccc(CNC(=O)c2cccc(C(C)Oc3cccnc3Nc3ncccn3)c2)cc1 (stereo unspecified)	IC50 [2]: > 10 µM
9.3 µM	7.4 µM	24.7 µM	CC(Oc1ccnc(Nc2cnn(C)c2)c1)c1cccc(C(=O)NCc2cc(C(F)(F)F)cc(C(F)(F)F)c2)c1 (stereo unspecified)	IC50 [2]: > 10 µM
17.6 µM	> 10 µM	20.8 µM	Cc1ccc(CNC(=O)c2cccc(C(C)Oc3cccnc3Nc3nncs3)c2)cc1 (stereo unspecified)	–
> 100 µM	8.4 µM	38.4 µM	CC(Oc1ccnc(Nc2cnn(CC(C)(C)O)c2)c1)c1cccc(C(=O)NCc2ccc(Cl)c(C(F)(F)F)c2)c1 (stereo unspecified)	–

IC50 (HCC78)	IC50 [1]	IC50 (NCI-H3122)	SMILES	further results
27.1 µM	> 10 µM	15.3 µM	Cc1ccc(CNC(=O)c2cccc(C(C)Oc3cccnc3Nc3nccs3)c2)cc1 (stereo unspecified)	–
76.6 µM	0.64 µM	38.5 µM	COc1ccc(CNC(=O)c2cccc(C(C)Oc3ccnc(Nc4cnn(C)c4)c3)c2)cc1OC (stereo unspecified)	–
9.4 µM	> 10 µM	23.7 µM	Cc1ccc(CNC(=O)c2cccc(C(C)Oc3cccnc3Nn3cnnc3)c2)cc1 (stereo unspecified)	–
20.5 µM	9.4 µM	9.1 µM	Cc1ccc(CNC(=O)c2cccc(C(C)Oc3cccnc3Nc3cnn(CC(C)(C)O)c3)c2)cc1 (stereo unspecified)	IC50 [2]: > 10 µM
63.1 µM	8.7 µM	> 100 µM	CC(Oc1cccnc1Nc1cnn(C)c1)c1cccc(C(=O)NCc2ccccc2S(=O)(=O)C(C)C)c1 (stereo unspecified)	IC50 [2]: > 10 µM
23.5 µM	9.1 µM	21.7 µM	CC(Oc1ccnc(NN2CCN(C)CC2)c1)c1cccc(C(=O)NCc2ccc(Cl)c(C(F)(F)F)c2)c1 (stereo unspecified)	–
73.9 µM	0.41 µM	29 µM	COc1cc(CNC(=O)c2cccc(C(C)Oc3ccnc(Nc4cnn(C)c4)c3)c2)cc(OC)c1OC (stereo unspecified)	–
7.3 µM	2.3 µM	8 µM	CC(Oc1ccnc(Nc2cnn(C3CCN(C)CC3)c2)c1)c1cccc(C(=O)NCc2ccc(Cl)c(C(F)(F)F)c2)c1 (stereo unspecified)	–
8.1 µM	0.44 µM	8.9 µM	Cc1ccc(CNC(=O)c2cccc(C(C)Oc3ccnc(Nc4cnn(C5CCN(C)CC5)c4)c3)c2)cc1 (stereo unspecified)	IC50 [2]: 3.1 µM; inhibition [3]: 8%; inhibition [4]: 6%; inhibition [5]: 9%; inhibition [6]: 9%; inhibition [7]: 1%; inhibition [8]: 2%; inhibition [9]: 7%; inhibition [10]: 3%; inhibition [11]: 15%; inhibition [12]: 11%; inhibition [13]: 12%; inhibition [14]: 1%
> 100 µM	> 10 µM	9.4 µM	Cc1ccc(CNC(=O)c2cccc(C(C)Oc3ccnc(Nc4nc5ccccc5[nH]4)c3)c2)cc1 (stereo unspecified)	IC50 [2]: > 10 µM
15.7 µM	2.4 µM	7.8 µM	COc1cc(Nc2cc(OC(C)c3cccc(C(=O)NCc4ccc(C)cc4)c3)ccn2)cc(OC)c1OC (stereo unspecified)	–
34.7 µM	9.6 µM	8.2 µM	Cc1cnc(Nc2ncccc2OC(C)c2cccc(C(=O)NCc3ccc(F)c(Cl)c3)c2)s1 (stereo unspecified)	–
65.3 µM	0.37 µM	47.2 µM	COc1ccc(CNC(=O)c2cccc(C(C)Oc3ccnc(Nc4cnn(C5CCNCC5)c4)c3)c2)cc1OC (stereo unspecified)	IC50 [2]: 4.5 µM; inhibition [3]: 7%; inhibition [4]: 1%; inhibition [5]: 15%; inhibition [6]: 11%; inhibition [7]: 0%; inhibition [8]: 3%; inhibition [9]: 9%; inhibition [10]: 5%; inhibition [11]: 13%; inhibition [12]: 16%; inhibition [13]: 10%; inhibition [14]: 2%
78.6 µM	> 10 µM	49.4 µM	COc1cccc(CNC(=O)c2cccc(C(C)Oc3cccnc3Nc3cnn(C)c3)c2)c1 (stereo unspecified)	–
68.3 µM	> 10 µM	> 100 µM	Cc1ccc(CNC(=O)c2cccc(C(C)Oc3ccnc(NN4CCOCC4)c3)c2)cc1 (stereo unspecified)	–
24.5 µM	> 10 µM	37.4 µM	Cc1ccc(CNC(=O)c2cccc(C(C)Oc3ccnc(NN4CCCCC4)c3)c2)cc1 (stereo unspecified)	–
8.9 µM	1.8 µM	7.7 µM	Cc1ccc(CNC(=O)c2cccc(C(C)Oc3ccnc(Nc4cnn(C)c4)c3)c2)cc1 (stereo unspecified)	–
68.5 µM	> 10 µM	43.8 µM	CC(Oc1cccnc1Nc1cnn(C)c1)c1cccc(C(=O)NCc2ccc(F)cc2)c1 (stereo unspecified)	–
